Results taken from patent publication US5051406A, “Pharmaceutical composition using albumin as a carrier and process for producing the same” (Nippon Hypox Laboratories Incorporated, priority 1987, dated 1991).

Key:
Type in all cases: in vivo, male rats of Wistar strain
[1] = test system: stomach mucous membrane (ulcer); experiment: Formation of stomach ulcer by Indometacin-albumin composition; conditions: rat, fasted, oral, 20 mg/kg in terms of Indometacin, 7 hours
Procedure: It is known that while non-steroidal anti-inflammatory agents show a strong anti-inflammatory action to inflammation-affected parts, they cause hemorrhage and ulcer to the digestive system.
The test was conducted according to the method by Okabe et al. (J. Jap. Pharmacol. Vol. 29, 670 (1979)). That is, two groups of male rats of Wistar strain each weighing 180-200 g (one group consisted of 8 such rats) were fasted for about 18 hours. As test samples, there were used suspensions obtained by suspending the Indometacin-albumin composition (Indometacin 3 g albumin 30 g) obtained in Example 23 or 24 (described later) in a 1% carboxymethyl cellulose sodium solution (hereinafter referred to as 1% CMCNa) in an amount of 20 mg/kg in terms of Indometacin. These suspensions were orally administered to the rats at a proportion of 0.5 ml/100 g (rat). As a control sample, a suspension obtained by suspending an Indometacin powder in 1% CMCNa in an amount of 20 mg/kg was administered similarly. After 7 hours from the administration, all the rats were sacrificed under etherization. 8 ml of a 1% aqueous buffered formalin solution was injected into the stomach of each rat. […] Thereafter, the stomach was incised along the greater curvature and the lesioned portions (ulcer portions) generated in the mucous membrane were measured for their major axes (mm) under a stereoscopic microscope. […]

[2] = test system: carragheenin induced plantar edema; experiment: Anti-inflammatory action, carragheenin induced plantar edema method; conditions: rat, oral, 5 mg/kg in terms of Indometacin
Procedure: The anti-inflammatory action of the Indometacin-albumin composition can also be proven by the following test by carragheenin induced plantar edema method.
A wide-mouthed glass container filled with water was placed on an electronic even balance. Into the water was immersed the sole of the right hind leg of rat up to the borders of the hair, and the resulting weight increase was measured to obtain a volume of the sole.
Three groups of male rats of Wistar strain each weighing 150-180 g (one group consisted of 6 such rats) were fasted for 18 hours and then measured for their sole volumes. These volumes were each taken as a sole volume before administration.
As test samples, there were used two suspensions, i.e. a suspension obtained by suspending the Indometacin-egg albumin composition (Indometacin 3 g / egg albumin 30 g) obtained in Example 24 (described later) in 1% CMCNa in an amount of about 5 mg/kg in terms of Indometacin and a suspension obtained by suspending an Indometacin powder in 1% CMCNa in an amount of 5 mg/kg in terms of Indometacin. These suspensions were orally administered to two sample groups at a proportion of 0.5 ml/100 g (rat). At 30 minutes after the oral administration, 0.1 ml of a physiological saline solution containing 1% of λ-carragheenin was subcutaneously administered to each rat at the sole of right hind leg and, immediately, 5 ml of water was administered orally. In 1, 3 and 5 hours after the administration of the 1% λ-carragheenin solution, the sole volume of each rat was measured. Then, the swelling percent of each individual rat, the average swelling percent of each group and the corresponding inhibition ratio were calculated according to the following formulae.
As a control sample, there was used 1% CMCNa, and it was orally administered to one control group at a proportion of 0.5 ml/100 g (rat). The results were compared with those of the sample-administered groups.
Swelling percent (%)=((B-A).div.A)×100
Inhibition ratio (%)=((C-D).div.C)×100
A: Sole volume before administration
B: Sole volume after administration
C: Average swelling percent of control group
D: Average swelling percent of sample group

[3] = Absorption of nalidixic acid-albumin composition by gastrointestinal tract (oral, rat serum level)
Procedure: It was made clear from the following test that the nalidixic acid-albumin composition (nalidixic acid content: 8.9%) obtained according to the present invention improves the absorption of nalidixic acid administered after meals.
Male rats of Wistar strain each weighing about 290 g obtained from Sankyo Labo. were used under a satiety condition.
The administration amount was 50 mg/kg in terms of nalidixic acid. A composition was administered in a form of its suspension in 1 ml of water, using an oral sonde. About 0.2 ml of blood was drawn from the eyeground of rat using a capillary (Drummond, 0.1 ml) and then centrifuged to obtain a serum.
The serum was mixed with an equal volume of methanol to deproteinize the serum. The determination for the deproteinized serum was conducted according to high performance liquid chromatography.
Column: ODS-80TM manufactured by TOYO SODA, 4.6 mm×15 cm
Mobile phase: Acetonitrile: 50 mM citric acid solution: 1 M ammonium acetate =35 : 64 : 1
Detection wavelength: 258 nm
Column temperature: Room temperature
The calibration curve was obtained by adding known nalidixic acid to a blank serum and subjecting the mixture to the same procedure as for the sample.

Structure (SMILES): COc1ccc2c(c1)c(CC(=O)O)c(C)n2C(=O)c1ccc(Cl)cc1 [Indometacin powder, Indometacin]
- Incidence [1]: 100.0%
- Ulcer index (Mean ± S.E.) ([1]; total of major axes (mm) of ulcers): 341.7 ± 49.9
- Swelling percent, 1 hr ([2]; 1 hr after λ-carragheenin): 10.3%
- Swelling percent, 3 hr ([2]; 3 hr after λ-carragheenin): 8.4%
- Swelling percent, 5 hr ([2]; 5 hr after λ-carragheenin): 8.5%
- Inhibition ratio, 1 hr ([2]; vs 1% CMCNa control, 1 hr after λ-carragheenin): 39.4%
- Inhibition ratio, 3 hr ([2]; vs 1% CMCNa control, 3 hr after λ-carragheenin): 52.5%
- Inhibition ratio, 5 hr ([2]; vs 1% CMCNa control, 5 hr after λ-carragheenin): 60.5%

Structure (SMILES): CCn1cc(C(=O)O)c(=O)c2ccc(C)nc21 [nalidixic acid powder, nalidixic acid]
- AUC at 8 h ([3]; 50 mg/kg in terms of nalidixic acid, 0-8 hours, read-out: area below the blood concentration-time curve (AUC) between 0 and 8 hours): 34600 ng·h/mL
- Tmax ([3]; 50 mg/kg in terms of nalidixic acid, satiety condition, read-out: time at which blood concentration of nalidixic acid reached the maximum): 3 h
- Cmax ([3]; same amount (50 mg/kg), satiety condition, read-out: maximum blood concentration of nalidixic acid (powder, unit printed as μg)): ~7000 ng/mL
